# Reference: ChEMBL document CHEMBL1135000, “Stereoselective and improved syntheses and anticancer testing of 3'-O-silatranylthymidines” (Bioorg Med Chem Lett, 2002)
# What was measured:
# [1] = tested on: Human alphaherpesvirus 1; assay: Inhibition against herpes simplex virus type 1, measured by a cytopathic effect inhibition assay with human foreskin fibroblast (HFF)cells infected with HSV; Inactive; type: functional, organism-based; conditions: Human alphaherpesvirus 1, HFF
# [2] = tested on: Human alphaherpesvirus 2; assay: Inhibition against herpes simplex virus type 2, measured by a cytopathic effect inhibition assay with human foreskin fibroblast (HFF) cells infected with HSV; Inactive; type: functional, organism-based; conditions: Human alphaherpesvirus 2, HFF
# [3] = tested on: Hepatitis B virus; assay: Cytotoxicity when tested for inhibition against hepatitis B virus in HBV-producing human liver cell line 2.2.15; type: functional; conditions: HepG2 2.2.15
# [4] = tested on: Hepatitis B virus; assay: Effective concentration required for inhibition against hepatitis B virus in HBV-producing human liver cell line 2.2.15; type: functional, organism-based; conditions: HepG2 2.2.15
SMILES,EC50 [1],EC50 [2],CC50 [3],EC50 [4]
Cc1cn([C@H]2C[C@H](O[Si]34OC(C)CN(CC(C)O3)CC(C)O4)[C@@H](CO)O2)c(=O)[nH]c1=O (some centres undefined),> 100 µg/mL,> 100 µg/mL,,
Cc1cn([C@H]2C[C@H](O[Si]34OCCN(CCO3)CCO4)[C@@H](CO)O2)c(=O)[nH]c1=O,,,1.29 mM,> 10 µM
